PubChem BioAssay (NCI)
Where “and” joins values, the source holds several entries; their conditions need not be identical. Equal values may be shown once.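 96-well plates; 48 h exposure; 5 concentrations. Endpoints by linear interpolation between flanking doses. Not reached: highest tested concentration assigned. The concentration for 50% growth inhibition is given as GI50. TGI marks complete inhibition of growth.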

How the values were obtained:
Experiment in all cases: growth of human tumour cells (NCI), 48 h
[1] = tested on: EKVX NSCLC
[2] = tested on: HT29 colon
[3] = tested on: K-562 leukemia
[4] = tested on: LOX IMVI melanoma
[5] = tested on: OVCAR-4 ovarian
[6] = tested on: SK-OV-3 ovarian
[7] = tested on: SN12C renal
[8] = tested on: SNB-19 CNS
[9] = tested on: SNB-75 CNS
[10] = tested on: U251 CNS

O=C(O)C1CC(O)CN1 (stereo unspecified)
TGI [1]: > 100 µM | TGI [2]: > 100 µM | TGI [3]: > 100 µM | TGI [4]: > 100 µM | TGI [5]: > 100 µM | TGI [6]: > 100 µM | TGI [7]: > 100 µM | TGI [8]: > 100 µM | TGI [9]: > 100 µM | TGI [10]: > 100 µM

C=C(c1ccccc1)[C@@]1(O)CC[C@@H]1N(CC#N)Cc1ccccc1
TGI [1]: > 88.9 µM | TGI [2]: 40 µM | TGI [3]: > 74.3 µM | TGI [4]: 34.6 µM | TGI [5]: 29.1 µM | TGI [6]: > 100 µM | TGI [7]: 46.8 µM | TGI [8]: > 63.8 µM | TGI [9]: > 96.5 µM | TGI [10]: > 100 µM

Cc1cccc(C)c1NC(=O)C(=O)Nn1c(NN)nc2ccccc2c1=O
TGI [1]: > 100 µM | TGI [2]: > 100 µM | TGI [3]: > 100 µM | TGI [4]: > 100 µM | TGI [5]: > 100 µM | TGI [6]: > 100 µM | TGI [7]: > 100 µM | TGI [8]: > 100 µM | TGI [9]: > 100 µM | TGI [10]: > 100 µM

N#CC1(C#N)C(C#N)(C#N)C12CCCCCC2
TGI [1]: 31.9 µM | TGI [2]: 34.6 µM | TGI [3]: > 30.3 µM | TGI [4]: 32.3 µM | TGI [5]: 30 µM | TGI [6]: > 100 µM | TGI [7]: 33.7 µM | TGI [8]: > 87.8 µM | TGI [9]: > 55.3 µM | TGI [10]: 20.5 µM

CC(=O)OCc1cc2ccccc2nc1C(Br)(Br)Br
TGI [1]: 41.8 µM | TGI [2]: 44.9 µM | TGI [3]: 45.4 µM | TGI [4]: 29.2 µM | TGI [5]: 30.5 µM | TGI [6]: 86.6 µM | TGI [7]: 26.3 µM | TGI [8]: 46.2 µM | TGI [9]: 39.9 µM | TGI [10]: 28.1 µM

O=C(OC[C@H]1O[C@H](OC(=O)c2cc(O)c(O)c(OC(=O)c3cc(O)c(O)c(O)c3)c2)[C@H](OC(=O)c2cc(O)c(O)c(OC(=O)c3cc(O)c(O)c(O)c3)c2)[C@@H](OC(=O)c2cc(O)c(O)c(OC(=O)c3cc(O)c(O)c(O)c3)c2)[C@@H]1OC(=O)c1cc(O)c(O)c(OC(=O)c2cc(O)c(O)c(O)c2)c1)c1cc(O)c(O)c(OC(=O)c2cc(O)c(O)c(O)c2)c1
GI50 [1]: 5.2 µM | TGI [1]: > 25 µM | GI50 [2]: 3.86 µM | TGI [2]: 9.22 µM | GI50 [3]: 9.63 µM | TGI [3]: > 25 µM | GI50 [4]: 1.24 µM | TGI [4]: > 25 µM | GI50 [5]: 4.67 µM | TGI [5]: 18.3 µM | GI50 [6]: 2.25 µM | TGI [6]: > 25 µM | GI50 [7]: 4.2 µM | TGI [7]: > 25 µM | GI50 [8]: 2.57 µM | TGI [8]: > 25 µM | GI50 [9]: 2.37 µM | TGI [9]: > 25 µM | GI50 [10]: 1.9 µM | TGI [10]: > 25 µM

O=C1C(Cl)=C(NCc2ccco2)C(=O)c2ccccc21
GI50 [1]: 37.3 µM | TGI [1]: > 100 µM | GI50 [2]: 6.14 µM | TGI [2]: > 100 µM | GI50 [3]: 4.55 µM | TGI [3]: > 100 µM | GI50 [4]: 7.1 µM | TGI [4]: 72.7 µM | GI50 [5]: 6.91 µM | TGI [5]: 19.2 µM | GI50 [6]: 40.3 µM | TGI [6]: > 100 µM | GI50 [7]: 25.9 µM | TGI [7]: > 100 µM | GI50 [8]: 24.3 µM | TGI [8]: > 100 µM | GI50 [9]: 2.25 µM | TGI [9]: 7.53 µM | GI50 [10]: 17 µM | TGI [10]: > 93.7 µM

CCOC(=O)c1c2c(n3ccccc13)C(=O)c1ncccc1C2=O
GI50 [1]: 1.13 µM | TGI [1]: 19.3 µM | GI50 [2]: 1.63 µM | TGI [2]: 5.68 µM | GI50 [3]: 0.0745 µM | TGI [3]: > 100 µM | GI50 [4]: 0.0413 µM | TGI [4]: 1.78 µM | GI50 [5]: 0.687 µM | TGI [5]: 12.3 µM | GI50 [6]: 0.0683 µM | TGI [6]: 22.9 µM | GI50 [7]: 0.0348 µM | TGI [7]: 5.85 µM | GI50 [8]: 0.0587 µM | TGI [8]: 13.7 µM | GI50 [9]: 0.818 µM | TGI [9]: 13 µM | GI50 [10]: 0.0329 µM | TGI [10]: 1.96 µM

O=Cc1c(O)c(C(=O)Nc2ccc3[nH]c(=O)[nH]c3c2)cc2ccccc12
TGI [1]: > 100 µM | TGI [2]: > 100 µM | TGI [3]: > 100 µM | TGI [4]: > 100 µM | TGI [5]: > 100 µM | TGI [6]: > 100 µM | TGI [7]: > 100 µM | TGI [8]: > 100 µM | TGI [9]: > 100 µM | TGI [10]: > 100 µM

NC(N)=NS(=O)(=O)c1ccc(Nc2c3ccccc3nc3c(C(=O)Nc4ccc(S(N)(=O)=O)cc4)cccc23)cc1
TGI [1]: > 100 µM | TGI [2]: > 100 µM | TGI [3]: > 100 µM | TGI [4]: > 100 µM | TGI [5]: > 100 µM | TGI [6]: > 100 µM | TGI [7]: > 100 µM | TGI [8]: > 100 µM | TGI [9]: > 100 µM | TGI [10]: > 100 µM

CC(C)(c1ccccc1)c1ccc(OC#N)cc1
TGI [1]: > 100 µM | TGI [2]: > 100 µM | TGI [3]: > 100 µM | TGI [4]: > 58.9 µM | TGI [5]: > 100 µM | TGI [6]: > 100 µM | TGI [7]: > 100 µM | TGI [8]: > 100 µM | TGI [9]: > 74.4 µM | TGI [10]: > 100 µM

CCN(CC)c1ccc(N=Nc2ccc(-c3nc4ccc[n+](C)c4o3)cc2)cc1
TGI [1]: 26.7 µM | TGI [2]: 24.3 µM | TGI [3]: 12.4 µM | TGI [4]: 18.5 µM | TGI [5]: 25.2 µM | TGI [6]: 34.1 µM | TGI [7]: 45.5 µM | TGI [8]: 26.1 µM | TGI [9]: 24 µM | TGI [10]: 16.6 µM

NCCCNCCCCNC(=O)C(O)NC(=O)CCCCCCN=C(N)N (stereo unspecified)
GI50 [1]: 4980 µM | TGI [1]: 742 µM and > 5000 µM | GI50 [2]: > 3580 µM | TGI [2]: > 5000 µM | GI50 [3]: 805 µM | TGI [3]: 750 µM and > 3610 µM | GI50 [4]: 828 µM | TGI [4]: 750 µM and 1570 µM | GI50 [5]: 2490 µM | TGI [5]: 619 µM and > 2810 µM | GI50 [6]: > 5000 µM | TGI [6]: > 5000 µM | GI50 [7]: 2040 µM | TGI [7]: > 5000 µM | GI50 [8]: 2080 µM | TGI [8]: 750 µM and > 4430 µM | GI50 [9]: > 1870 µM | TGI [9]: 671 µM and > 3170 µM | GI50 [10]: 2080 µM | TGI [10]: 636 µM and > 4540 µM

C=C1CC2(OC1=O)C(=O)Nc1ccccc12 (stereo unspecified)
GI50 [1]: 13.5 µM | TGI [1]: 26.7 µM | GI50 [2]: 3.03 µM | TGI [2]: 11 µM | GI50 [3]: 1.88 µM | TGI [3]: 10 µM | GI50 [4]: 1.56 µM | TGI [4]: 3.03 µM | GI50 [5]: 1.5 µM | TGI [5]: 3.37 µM | GI50 [6]: 26.7 µM | TGI [6]: > 100 µM | GI50 [7]: 3.74 µM | TGI [7]: 14.1 µM | GI50 [8]: 32.9 µM | TGI [8]: > 100 µM | GI50 [9]: 11 µM | TGI [9]: 28.1 µM | GI50 [10]: 13.1 µM | TGI [10]: 30.5 µM

NC(N)=NS(=O)(=O)c1ccc(NCCc2c3ccccc3nc3ccccc23)cc1
TGI [1]: > 100 µM | TGI [2]: > 100 µM | TGI [3]: > 100 µM | TGI [4]: > 100 µM | TGI [5]: 53.8 µM | TGI [6]: > 100 µM | TGI [7]: > 100 µM | TGI [8]: > 100 µM | TGI [9]: > 100 µM | TGI [10]: > 100 µM

COc1ccc2c(c1)C(=O)c1c-2n(CCCI)c(=O)c2cc([N+](=O)[O-])ccc12
TGI [1]: 11.8 µM and > 100 µM | GI50 [2]: 0.16 µM and 0.437 µM | GI50 [3]: 0.0596 µM and 0.19 µM | TGI [3]: 50 µM and > 100 µM | GI50 [4]: 0.0743 µM and 0.0432 µM | TGI [4]: 0.763 µM and 1.01 µM | GI50 [5]: 1.03 µM and 3.72 µM | TGI [5]: 11.9 µM and 84.3 µM | GI50 [6]: 0.23 µM and 0.48 µM | GI50 [7]: 0.105 µM and 0.312 µM | GI50 [8]: 0.313 µM and 0.131 µM | TGI [8]: 36.9 µM and > 100 µM | GI50 [9]: 0.198 µM and 0.368 µM | TGI [9]: 2.37 µM and 15.2 µM | GI50 [10]: 0.138 µM and 0.047 µM | TGI [10]: 5.64 µM and 1.27 µM
